Test results reported in patent US8067369B2, “Protection of the retina against laser injury by NAP and related peptides” (Ramot at Tel-Aviv University, priority 2006, dated 2011).
Blank lines part the entries; values can stand above or below the compound they belong to. No end group written: not given here.

What was measured:
[1] = tested on: neurons of the central nervous system; settings: in-vitro assays and in vivo disease models; cited from earlier work
[2] = tested on: laser-induced retinal damage; experiment: Argon laser retinal lesions in rats, histopathologic and morphometric evaluation; format: in vivo, rat
Experimental: Pigmented DA rats (strain DA/Ola/Hsd, Harlan OCAL Ltd., Blackthorn Bicester Oxon, England; raised in Tel-Aviv University animal house), 90 days old, were used for the experiments. The posterior segment of the eye of this strain has a uniform pigmentation, making it particularly useful for retinal laser injury production. The animals were fed ad libitum with a normal laboratory diet and maintained on a 12-h light/dark cycle. They were anesthetized by intraperitoneal injections of ketamine (40 mg/kg) and xylasine (8 mg/kg) before each experimental procedure.
After dilatation of the pupil with sterile drops of Topicamid 0.5% (Midramid, Fisher), a contact lens, specially crafted to fit a rat eye for retinal laser irradiation, was attached to the cornea with 2.5% hydroxypropyl methylcellulose. Six laser retinal lesions were produced in each eye of each of the anesthetized (ketamine (40 mg/kg) and xylasine (8 mg/kg)) rats by argon laser (Novus 2000 Coherent, CA) two disc diameters away from the optic disc. The laser beam characteristics were 514 & […], 200 μm, 0.1 W, 0.05 second. These laser settings were found in previous studies to result in lesions of a uniform size and configuration, involving mainly the outer retinal layers.
The animals of the experimental groups I and III underwent systemic intravenous injection of NAP or saline immediately after the laser photocoagulation, NAP was injected in the amount of 60 μg per animal (about 280-300 μg/kg) in a volume of 0.5 ml of saline. The animals of the control group got an injection of 0.5 ml of saline. The injections were performed in the femoral vein of the right leg of each animal after the vessel was uncovered and isolated in situ. The wound was sewed up after the injection with surgical silk.
The animals of the experimental groups II and IV underwent NAP or saline injection immediately after the laser photocoagulation. Each eye of each anesthetized rat was punctured with a 30-gauge needle of a Hamilton syringe at the temporal posterior part of the retina. Then, 5 μl of NAP saline solution at a concentration of 2.5 pg/μl was injected into the vitreous body of the experimental group. The same amount of saline (5 μl) was injected intravitreally in the animals of the control groups. All of the procedures were controlled visually via a surgical microscope.
The effect of treatment in all groups was evaluated at three time points: 3, 20, and 60 days after the primary injury (n=6 at each time point in each group). The animals were euthanized by a lethal dose of pentobarbitone and their eyes enucleated and fixed in 2% glutaraldehyde. Using a surgical microscope, the posterior segment of the fixed eye was dissected into tissue samples, each incorporating one retinal laser lesion. The samples were embedded in epoxy resin and the blocks sectioned serially (1 μm) with an ultramicrotome and stained with toluidine blue.
The microscopic images were digitalized by SmartCapture VP software (Digital Scientific, USA) and enhanced by IPLab software (Scanalytics, USA). Then the images were segmented for photoreceptor clarification by IPLab software (Scanalytics, USA) and the photoreceptors were counted.
Morphometric measurements were performed on each lesion in order to evaluate the severity of the argon laser injury. The borders of the lesion area were established at the most distant point from the middle of the lesion where the cytoarchitecture changes in the pigment epithelium, outer nuclear, inner nuclear, or ganglion cell layers of the retina could be distinguished. The measurements performed were: 1) Diameter of the whole lesion, 2) Cell count in the outer nuclear layer of the whole lesion area, and 3) Cell count in the outer nuclear layer at the 100 μm center of the lesion
In order to evaluate the extent of photoreceptor cell loss, results were compared to the cell density in the intact regions of the outer nuclear retinal layer located 100 μm peripherally from the edges of the lesion. […]

[3] = rabbit, in vivo
Experimental: Three albino rabbits (each three months old) were used. One animal at a time was anesthetized using Ketamin (40 mg/kg) and Xylazine (8 mg/kg). After the animals were fully anesthetized, a drop of radioactive drug—^14C-NAPVSIPQ (SEQ ID NO:24) (50 microliter; 1.5×10^6 dpm; 37 mCi/mmol; 1 microCi=2×10^6 dpm) was applied once by a micropipette to each eye, i.e., eye drops. The eye drops were prepared to include 2.7 microliter of the ^14C-NAP stock in 400 microliter saline (0.9% NaCl). 10 microliters of this solution were counted to yield 3×10^5 dpm. After application of the drug, eye lids were held gently closed for 10 seconds.
The aqueous humor is the liquid that is found in-between the cornea and lens. Ten microliter samples of aqueous humor were taken from the rabbits' eyes using a tuberculin syringe with a 30 gauge needle.
The vitreous humor is found between the retina and the lens. Vitreous samples were obtained through the pars plana with a 25 gauge needle attached to a Tuberculin syringe. Ten microliter samples of vitreous humor were taken from each eye at designated times as outlined in the attached graphs up to 130 minutes after the initial eye drop application Systemic samples were taken from blood. For results see, e.g., FIGS. 4-6.
The animals were anesthetized for the duration of the […] to avoid animal suffering. A boost of anesthetics was injected about ninety minutes after the initiation of the experiment.

[4] = tested on: cells of the central nervous system (CNS); settings: cell cultures; cited from earlier work
[5] = tested on: Alzheimer's disease pathology; settings: in vivo; cited from earlier work
normal aging rats = settings: intranasal administration; cited from earlier work
ischemic injury = settings: after ischemic injury; cited from earlier work
closed head injury = settings: mice; cited from earlier work
fetal alcohol syndrome = settings: in vivo; cited from earlier work
anxiety = settings: long term nasal application; cited from earlier work

Compound: SALLRSIPA
survival of neurons in response to various insults [1]: keep neurons of the central nervous system alive

maximal incorporation into vitreous samples [3]: 60 dpm/10 microliters | peak of radioactive incorporation into the aqueous humor [3]: 150 dpm/10 microliter | radioactivity at the aqueous humor at the 10 minute point [3]: ~60 dpm/10 microliters | systemic exposure (blood radioactivity) [3]: 1-12 dpm | time of maximal incorporation into vitreous samples [3]: 10 min | time of peak radioactive incorporation into the aqueous humor [3]: 50 min | time the aqueous humor peak was maintained [3]: 70 min
Compound: CC[C@H](C)[C@H](NC(=O)[C@H](CO)NC(=O)[C@@H](NC(=O)[C@@H]1CCCN1C(=O)[C@H](C)NC(=O)[C@@H](N)CC(N)=O)C(C)C)C(=O)N1CCC[C@H]1C(=O)N[C@@H](CCC(N)=O)C(=O)O [NAP, Asn-Ala-Pro-Val-Ser-Ile-Pro-Gln]
neuroprotective effect against laser-induced retinal damage ([2]; intravitreal NAP 5 μl of 2.5 pg/μl, 3 days after the laser session): significant neuroprotective effect | neuroprotective effect against laser-induced retinal damage ([2]; intravitreal NAP, 20 and 60 days after the laser session): not after 20 and 60 days | mean lesion diameter ([2]; intravitreal NAP, 3 days after the laser injury): reduced | mean lesion diameter ([2]; intravitreal NAP, after 20 days, vs control groups): greater than in control groups | photoreceptor loss (morphological evaluation of the lesions) ([2]; systemic intravenous NAP 60 μg per animal immediately after laser, 3 and 20 days after injury, vs saline control): attenuation | lesion diameter (morphological evaluation of the lesions) ([2]; systemic intravenous NAP 60 μg per animal, 3 and 20 days after injury, vs saline control): attenuation | number of cells lost, whole and central areas of lesion ([2]; systemic intravenous NAP, 3, 20 and 60 days after injury): reduced | diameter of the lesion ([2]; systemic intravenous NAP, 20 and 60 days after the injury): significant ameliorative effects (P<0.01) | neuroprotective effect (photoreceptor loss and lesion diameter) ([2]; systemic intravenous NAP, 60 days after the laser session): also manifested, although to a lesser extent | significance of reduction in number of cells lost ([2]; systemic intravenous NAP, sixty days after photocoagulation only): statistically significant (P<0.01) | concentration showing neuroprotective activity [4]: femtomolar concentrations | effect in Alzheimer's disease pathology models [5]: protective | performance in the Morris water maze (normal aging rats): improved performance | infarct volume (ischemic injury): reduced | motor function deficits (ischemic injury): reduced | damage caused by closed head injury (closed head injury): reducing damage | fetal demise (fetal alcohol syndrome): reducing | growth restrictions (fetal alcohol syndrome): reducing | anxiety (anxiety): decreased anxiety
